According to patent US11912701B2, “Protein kinase inhibitors for promoting liver regeneration or reducing or preventing hepatocyte death” (HEPAREGENIX GMBH, priority 2018, dated 2024):

How the values were obtained:
Type in all cases: biochemical
BRaf = molecular target: T1, BRaf (Homo sapiens, UniProt P15056); assay: 33PanQinase enzyme assay, BRaf; conditions: ratio IC50(BRaf)/IC50(MKK4)
T1 construct: purchased ProQinase GmbH, Freiburg, Germany (33PanQinase Assay Service)
Method in brief: (§1)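 Radiometric 33PanQinase format: kinase with substrate, ATP and compound (added in 10% DMSO stock) incubated 60 min at 30° C, stopped with 2% H3PO4, ^33Pi incorporation counted by scintillation. Single-concentration data given as % residual activity; IC50 by least-squares fit, with selectivity as IC50(off-target)/IC50(MKK4).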

MKK4 = molecular target: T2, MKK4 (Homo sapiens, UniProt P45985); assay: 33PanQinase enzyme assay, MKK4; conditions: assay 'IC50'; for IC50: read-out: Potency MKK4 (IC50)
T2 construct: purchased ProQinase GmbH, Freiburg, Germany (33PanQinase Assay Service)
T2 sequence (P45985 1-399): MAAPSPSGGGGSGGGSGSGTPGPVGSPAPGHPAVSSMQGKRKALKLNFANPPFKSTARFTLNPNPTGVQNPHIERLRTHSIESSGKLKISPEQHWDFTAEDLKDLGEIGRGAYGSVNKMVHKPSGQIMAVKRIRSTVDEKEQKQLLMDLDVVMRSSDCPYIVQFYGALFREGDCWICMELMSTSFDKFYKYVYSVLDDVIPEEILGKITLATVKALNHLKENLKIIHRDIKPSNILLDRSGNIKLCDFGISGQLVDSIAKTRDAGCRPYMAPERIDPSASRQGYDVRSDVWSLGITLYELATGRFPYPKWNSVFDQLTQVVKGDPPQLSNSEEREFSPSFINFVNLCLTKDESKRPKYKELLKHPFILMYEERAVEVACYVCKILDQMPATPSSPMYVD
Method in brief: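 Radiometric 33PanQinase assay: kinase, substrate, ATP and compound in standard buffer, 60 min at 30 °C; 33Pi incorporation read by scintillation counting.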

MKK7 = molecular target: T3, MKK7 (Homo sapiens, UniProt O14733); assay: 33PanQinase enzyme assay, MKK7; design: purchased ProQinase GmbH, Freiburg, Germany (33PanQinase Assay Service); conditions: ratio IC50(MKK7)/IC50(MKK4)
T3 sequence (O14733 1-419): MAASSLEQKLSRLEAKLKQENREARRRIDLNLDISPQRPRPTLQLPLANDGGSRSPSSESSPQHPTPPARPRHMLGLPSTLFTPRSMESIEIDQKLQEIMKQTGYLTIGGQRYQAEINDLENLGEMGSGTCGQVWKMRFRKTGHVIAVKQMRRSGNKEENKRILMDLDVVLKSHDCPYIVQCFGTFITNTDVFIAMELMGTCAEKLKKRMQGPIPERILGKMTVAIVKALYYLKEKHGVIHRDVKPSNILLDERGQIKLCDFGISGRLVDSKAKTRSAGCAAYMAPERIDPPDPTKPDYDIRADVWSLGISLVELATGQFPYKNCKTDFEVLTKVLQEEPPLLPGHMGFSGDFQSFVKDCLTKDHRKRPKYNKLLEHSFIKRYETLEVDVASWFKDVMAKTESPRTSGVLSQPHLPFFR
Method in brief: as §1

JNK1 = JNK1 (Homo sapiens, UniProt P45983); assay: 33PanQinase enzyme assay, JNK1; design: purchased ProQinase GmbH, Freiburg, Germany (33PanQinase Assay Service); conditions: ratio IC50(JNK1)/IC50(MKK4)
Method in brief: as §1

T1 sequence (P15056 whole entry, species assumed): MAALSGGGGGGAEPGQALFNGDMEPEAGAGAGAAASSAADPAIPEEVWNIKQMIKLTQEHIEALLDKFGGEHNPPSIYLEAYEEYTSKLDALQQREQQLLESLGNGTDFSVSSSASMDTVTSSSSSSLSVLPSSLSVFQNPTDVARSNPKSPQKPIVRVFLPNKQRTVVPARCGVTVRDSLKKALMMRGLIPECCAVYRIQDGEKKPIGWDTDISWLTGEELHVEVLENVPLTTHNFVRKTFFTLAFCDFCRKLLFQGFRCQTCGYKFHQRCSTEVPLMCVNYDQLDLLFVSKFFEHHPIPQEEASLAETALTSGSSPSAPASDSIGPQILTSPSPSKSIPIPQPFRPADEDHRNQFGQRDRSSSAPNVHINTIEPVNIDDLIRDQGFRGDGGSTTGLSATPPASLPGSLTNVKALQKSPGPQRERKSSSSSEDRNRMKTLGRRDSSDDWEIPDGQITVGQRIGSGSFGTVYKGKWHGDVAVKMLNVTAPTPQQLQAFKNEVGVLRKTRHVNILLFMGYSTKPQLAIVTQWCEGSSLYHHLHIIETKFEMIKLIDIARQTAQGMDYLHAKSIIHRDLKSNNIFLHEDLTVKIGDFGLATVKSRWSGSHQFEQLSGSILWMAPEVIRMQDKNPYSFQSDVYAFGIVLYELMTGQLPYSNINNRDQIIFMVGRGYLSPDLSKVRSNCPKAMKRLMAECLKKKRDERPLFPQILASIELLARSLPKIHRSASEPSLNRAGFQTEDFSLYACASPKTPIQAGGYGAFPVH
Chain of JNK1 (P45983 whole entry): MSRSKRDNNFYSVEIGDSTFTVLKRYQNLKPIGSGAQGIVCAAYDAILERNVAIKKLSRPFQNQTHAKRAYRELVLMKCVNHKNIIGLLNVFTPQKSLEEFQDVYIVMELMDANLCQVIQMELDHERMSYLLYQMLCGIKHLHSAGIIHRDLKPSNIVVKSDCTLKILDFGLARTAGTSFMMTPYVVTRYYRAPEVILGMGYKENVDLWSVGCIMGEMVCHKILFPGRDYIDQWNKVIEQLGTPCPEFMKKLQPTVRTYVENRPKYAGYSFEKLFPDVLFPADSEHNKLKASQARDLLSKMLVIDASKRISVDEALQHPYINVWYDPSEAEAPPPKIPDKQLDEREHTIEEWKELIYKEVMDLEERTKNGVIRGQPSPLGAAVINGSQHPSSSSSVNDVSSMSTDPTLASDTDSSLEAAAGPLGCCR

| Structure (SMILES) | Selectivity Braf, IC50(off-target)/IC50(MKK4) (BRaf) | IC50 (MKK4) [nM] | Selectivity IVIKK7, IC50(off-target)/IC50(MKK4) (MKK7) | Selectivity JNK1, IC50(off-target)/IC50(MKK4) (JNK1) | Potency MKK4 (IC50) (MKK4) |
| --- | --- | --- | --- | --- | --- |
| O=C(c1ccc(F)c(NS(=O)(=O)CCC(F)(F)F)c1F)c1c[nH]c2ncc(-c3ccc(Cl)cc3)cc12 [Example 150, N-(3-(5-(4-chlorophenyl)-1H-pyrrolo[2,3-b]pyridine-3-carbonyl)-2,6-difluorophenyl)-3,3,3-trifluoropropane-1-sulfonamide] | +++ (IC50(off-target)/IC50(MKK4) > 100) | < 100 | +++ (IC50(off-target)/IC50(MKK4) > 100) | +++ (IC50(off-target)/IC50(MKK4) > 100) | – |
| CCCS(=O)(=O)Nc1c(F)ccc(C(=O)c2c[nH]c3ncc(-c4ccncc4Cl)cc23)c1F [Example 173, N-(3-(5-(3-chloropyridin-4-yl)-1H-pyrrolo[2,3-b]pyridine-3-carbonyl)-2,6-difluorophenyl)propane-1-sulfonamide] | +++ (IC50(off-target)/IC50(MKK4) > 100) | < 100 | +++ (IC50(off-target)/IC50(MKK4) > 100) | ++ (100 ≥ IC50(off-target)/IC50(MKK4) > 10) | – |
| CCCS(=O)(=O)Nc1c(F)ccc(C(=O)c2c[nH]c3ncc(-c4ccccc4C(=O)O)cc23)c1F [Example 224, 2-(3-(2,4-difluoro-3-(propylsulfonamido)benzoyl)-1H-pyrrolo[2,3-b]pyridin-5-yl)benzoic acid] | ◯ (3 ≥ IC50(off-target)/IC50(MKK4)) | 1000 to 10000 | ++ (100 ≥ IC50(off-target)/IC50(MKK4) > 10) | ◯ (3 ≥ IC50(off-target)/IC50(MKK4)) | – |
| CCCS(=O)(=O)Nc1c(F)ccc(C(=O)c2c[nH]c3ncc(-c4ccc(Cl)cc4C)cc23)c1F [Example 225, N-(3-(5-(4-chloro-2-methylphenyl)-1H-pyrrolo[2,3-b]pyridine-3-carbonyl)-2,6-difluorophenyl)propane-1-sulfonamide] | +++ (IC50(off-target)/IC50(MKK4) > 100) | < 100 | +++ (IC50(off-target)/IC50(MKK4) > 100) | ++ (100 ≥ IC50(off-target)/IC50(MKK4) > 10) | – |
| CCCS(=O)(=O)Nc1c(F)ccc(C(=O)c2c[nH]c3ncc(-c4cnc(Cl)nc4)cc23)c1F [Example 237, N-(3-(5-(2-chloropyrimidin-5-yl)-1H-pyrrolo[2,3-b]pyridine-3-carbonyl)-2,6-difluorophenyl)propane-1-sulfonamide] | +++ (IC50(off-target)/IC50(MKK4) > 100) | – | +++ (IC50(off-target)/IC50(MKK4) > 100) | +++ (IC50(off-target)/IC50(MKK4) > 100) | +++· |
| CCCS(=O)(=O)Nc1c(F)ccc(C(=O)c2c[nH]c3ncc(-c4ccccc4C)cc23)c1F [Example 215, N-(2,6-difluoro-3-(5-(o-tolyl)-1H-pyrrolo[2,3-b]pyridine-3-carbonyl)phenyl)propane-1-sulfonamide] | ◯ (3 ≥ IC50(off-target)/IC50(MKK4)) | 100 to 1000 | +++ (IC50(off-target)/IC50(MKK4) > 100) | + (10 ≥ IC50(off-target)/IC50(MKK4) > 3) | – |
| O=C(c1ccc(F)c(NS(=O)(=O)CCC(F)(F)F)c1F)c1c[nH]c2ncc(-c3cnc(C(F)(F)F)nc3)cc12 [Example 142, N-(2,6-difluoro-3-(5-(2-(trifluoromethyl)pyrimidin-5-yl)-1H-pyrrolo[2,3-b]pyridine-3-carbonyl)phenyl)-3,3,3-trifluoro-propane-1-sulfonamide] | +++ (IC50(off-target)/IC50(MKK4) > 100) | < 100 | +++ (IC50(off-target)/IC50(MKK4) > 100) | ++·+ | – |
| CCCS(=O)(=O)Nc1c(F)ccc(C(=O)c2c[nH]c3ncc(-c4cnc(N5CCCC5)nc4)cc23)c1F [Example 191, N-(2,6-difluoro-3-(5-(2-(pyrrolidin-1-yl)pyrimidin-5-yl)-1H-pyrrolo[2,3-b]pyridine-3-carbonyl)phenyl)propane-1-sulfonamide] | +++ (IC50(off-target)/IC50(MKK4) > 100) | 100 to 1000 | +++ (IC50(off-target)/IC50(MKK4) > 100) | +++ (IC50(off-target)/IC50(MKK4) > 100) | – |
| CCCS(=O)(=O)Nc1c(F)ccc(C(=O)c2c[nH]c3ncc(-c4ccc(C)nc4C)cc23)c1F [Example 165, N-(3-(5-(2,6-dimethylpyridin-3-yl)-1H-pyrrolo[2,3-b]pyridine-3-carbonyl)-2,6-difluorophenyl)propane-1-sulfonamide] | +++ (IC50(off-target)/IC50(MKK4) > 100) | < 100 | +++ (IC50(off-target)/IC50(MKK4) > 100) | +++ (IC50(off-target)/IC50(MKK4) > 100) | – |
| CCCS(=O)(=O)Nc1c(F)ccc(C(=O)c2c[nH]c3ncc(-c4cnc(CF)nc4)cc23)c1F [Example 207, N-(2,6-difluoro-3-(5-(2-(fluoromethyl)pyrimidin-5-yl)-1H-pyrrolo[2,3-b]pyridine-3-carbonyl)phenyl)propane-1-sulfonamide] | +++ (IC50(off-target)/IC50(MKK4) > 100) | 100 to 1000 | +++ (IC50(off-target)/IC50(MKK4) > 100) | ++ (100 ≥ IC50(off-target)/IC50(MKK4) > 10) | – |
| CCCS(=O)(=O)Nc1c(F)ccc(C(=O)c2c[nH]c3ncc(-c4c(C)cc(C)nc4C)cc23)c1F [Example 168, N-(2,6-difluoro-3-(5-(2,4,6-trimethylpyridin-3-yl)-1H-pyrrolo[2,3-b]pyridine-3-carbonyl)phenyl)propane-1-sulfonamide] | +++ (IC50(off-target)/IC50(MKK4) > 100) | 100 to 1000 | +++ (IC50(off-target)/IC50(MKK4) > 100) | ++ (100 ≥ IC50(off-target)/IC50(MKK4) > 10) | – |
| CCCS(=O)(=O)Nc1c(F)ccc(C(=O)c2c[nH]c3ncc(-c4cnc(CC)nc4)cc23)c1F [Example 206, N-(3-(5-(2-ethylpyrimidin-5-yl)-1H-pyrrolo[2,3-b]pyridine-3-carbonyl)-2,6-difluorophenyl)propane-1-sulfonamide] | +++ (IC50(off-target)/IC50(MKK4) > 100) | < 100 | +++ (IC50(off-target)/IC50(MKK4) > 100) | +++ (IC50(off-target)/IC50(MKK4) > 100) | – |
| CCCS(=O)(=O)Nc1ccc(F)c(C(=O)c2c[nH]c3ncc(-c4ncccn4)cc23)c1F [Example 90, N-(2,4-difluoro-3-(5-(pyrimidin-2-yl)-1H-pyrrolo[2,3-b]pyridine-3-carbonyl)phenyl)propane-1-sulfonamide] | ◯ (3 ≥ IC50(off-target)/IC50(MKK4)) | 1000 to 10000 | ++ (100 ≥ IC50(off-target)/IC50(MKK4) > 10) | ◯ (3 ≥ IC50(off-target)/IC50(MKK4)) | – |
| CCCS(=O)(=O)Nc1ccc(F)c(C(=O)c2c[nH]c3ncc(-c4ccc(C(C)(C)C)cc4)cc23)c1F [Example 113, N-(3-(5-(4-(tert-butyl)phenyl)-1H-pyrrolo[2,3-b]pyridine-3-carbonyl)-2,4-difluorophenyl)propane-1-sulfonamide] | ◯ (3 ≥ IC50(off-target)/IC50(MKK4)) | 100 to 1000 | +++ (IC50(off-target)/IC50(MKK4) > 100) | + (10 ≥ IC50(off-target)/IC50(MKK4) > 3) | – |
